Legend:
Type in all cases: in vivo
[1] = test system: velvetleaf (Abutilon theophrasti); experiment: Test A pre-/postemergence plant response
How it was run: (§1)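 Plants grown from seed in a loam soil and sand mix received test compounds both as a preemergence soil spray and, at the same time, as a postemergence spray at the one- to two-leaf stage. Injury was judged visually against untreated controls roughly ten days later, 0 meaning no effect and 100 complete control.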

[2] = test system: morningglory (Ipomoea spp.); experiment: Test A pre-/postemergence plant response
How it was run: as §1

[3] = test system: wheat (Triticum aestivum); experiment: Test A pre-/postemergence plant response
How it was run: as §1

[4] = test system: giant foxtail (Setaria faberii); experiment: Test A pre-/postemergence plant response
How it was run: as §1

corn (Zea mays) = experiment: Test A pre-/postemergence plant response
How it was run: as §1

[5] = test system: large crabgrass (Digitaria sanguinalis); experiment: Test A pre-/postemergence plant response
How it was run: as §1

[6] = test system: pigweed (Amaranthus retroflexus); experiment: Test A pre-/postemergence plant response
How it was run: as §1

[7] = test system: barnyardgrass (Echinochloa crus-galli); experiment: Test A pre-/postemergence plant response
How it was run: as §1

[8] = test system: windgrass (Apera spica-venti); experiment: Test B postemergence plant response; settings: for Windgrass plant response rating (0 to 100 scale): 62 g ai/ha, 0 is no effect, 13 to 15 days
How it was run: (§2)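 Plants grown in peat/vermiculite medium were sprayed postemergence at 2–18 cm height (1- to 4-leaf stage). After 13–15 days in the greenhouse, response was rated visually against untreated controls on a 0–100 scale (0 no effect, 100 complete control).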

[9] = test system: canarygrass (Phalaris minor); experiment: Test B postemergence plant response; settings: for Canarygrass plant response rating (0 to 100 scale): 62 g ai/ha, 0 is no effect, 13 to 15 days
How it was run: as §2

[10] = test system: chickweed (Stellaria media); experiment: Test B postemergence plant response; settings: for Chickweed plant response rating (0 to 100 scale): 62 g ai/ha, 0 is no effect, 13 to 15 days
How it was run: as §2

[11] = test system: winter barley (Hordeum vulgare); experiment: Test B postemergence plant response; settings: for Barley plant response rating (0 to 100 scale): 62 g ai/ha, 0 is no effect, 13 to 15 days
How it was run: as §2

[12] = Postemergence, 125 g ai/ha, 0 to 100 scale where 0 is no effect and 100 is complete control
[13] = Postemergence, 500 g ai/ha, 0 to 100 scale, 0 = no effect, 100 = complete control, approx. ten days
[14] = Preemergence, 125 g ai/ha, 0 to 100 scale, 0 = no effect, 100 = complete control
[15] = Preemergence, 500 g ai/ha, visual injury, 0 to 100 scale (0 no effect, 100 complete control), approx. ten days
[16] = 31 g ai/ha, postemergence, scale 0 to 100, 0 is no effect, 100 is complete control
[17] = postemergence, 100 is complete control
[18] = Postemergence, 250 g ai/ha, scale 0 to 100 (0 no effect, 100 complete control)
[19] = Postemergence, 125 g ai/ha, visual rating after 13 to 15 days, scale 0 (no effect) to 100 (complete control)
[20] = Postemergence, 125 g ai/ha, scale 0 to 100 (0 no effect, 100 complete control)

CC(C)n1c(-c2ccccc2)ncc(C(=O)C2=C(O)CCCC2=O)c1=O [Compound 95]
75: Plant response rating, Chickweed [10, 16]
0: Plant response rating, Wheat [3, 12] | Plant response rating, Wheat [3, 13] | Plant response rating, Wheat [3, 14] | Plant response rating, Wheat [3, 15] | Plant response rating, Corn (corn (Zea mays); [12]) | Plant response rating, Corn (corn (Zea mays); [14]) | Plant response rating, Corn (corn (Zea mays); [15]) | Plant response rating, Windgrass [8, 16] | Windgrass plant response rating (0 to 100 scale) [8, 17] | Plant response rating, Windgrass [8, 18] | Plant response rating, Canarygrass [9, 16] | Canarygrass plant response rating (0 to 100 scale) [9, 17] | Plant response rating, Canarygrass [9, 19] | Plant response rating, Canarygrass [9, 18] | Plant response rating, Barley [11, 16] | Barley plant response rating (0 to 100 scale) [11, 17] | Plant response rating, Barley [11, 19] | Plant response rating, Barley [11, 18]
10: Plant response rating, Corn (corn (Zea mays); [13])
60: Plant response rating, Foxtail, Giant [4, 15]
98: Plant response rating, Chickweed [10, 19]
50: Plant response rating, Crabgrass, Large [5, 14]
70: Plant response rating, Morningglory [2, 14] | Plant response rating, Foxtail, Giant [4, 12]
90: Plant response rating, Velvetleaf [1, 14] | Plant response rating, Morningglory [2, 15] | Plant response rating, Foxtail, Giant [4, 13] | Plant response rating, Crabgrass, Large [5, 12] | Plant response rating, Crabgrass, Large [5, 13] | Plant response rating, Crabgrass, Large [5, 15] | Plant response rating, Pigweed [6, 14] | Plant response rating, Barnyardgrass [7, 13]
30: Plant response rating, Foxtail, Giant [4, 14]
100: Plant response rating, Velvetleaf [1, 12] | Plant response rating, Velvetleaf [1, 13] | Plant response rating, Velvetleaf [1, 15] | Plant response rating, Morningglory [2, 12] | Plant response rating, Morningglory [2, 13] | Plant response rating, Pigweed [6, 12] | Plant response rating, Pigweed [6, 13] | Plant response rating, Pigweed [6, 15] | Plant response rating, Chickweed [10, 18]
40: Plant response rating, Barnyardgrass [7, 14]
80: Plant response rating, Barnyardgrass [7, 12] | Plant response rating, Barnyardgrass [7, 15]
85: Chickweed plant response rating (0 to 100 scale) [10, 17]

CCCn1c(-c2ccc(F)cc2)ncc(C(=O)C2=C(O)CCCC2=O)c1=O [Compound 102]
20: Plant response rating, Corn (corn (Zea mays); [13]) | Canarygrass plant response rating (0 to 100 scale) [9, 17]
80: Plant response rating, Velvetleaf [1, 14] | Plant response rating, Morningglory [2, 14] | Plant response rating, Morningglory [2, 15] | Plant response rating, Foxtail, Giant [4, 12] | Plant response rating, Foxtail, Giant [4, 14] | Plant response rating, Crabgrass, Large [5, 14] | Plant response rating, Barnyardgrass [7, 12] | Chickweed plant response rating (0 to 100 scale) [10, 17]
50: Plant response rating, Canarygrass [9, 18]
90: Plant response rating, Foxtail, Giant [4, 13] | Plant response rating, Crabgrass, Large [5, 12] | Plant response rating, Barnyardgrass [7, 13] | Plant response rating, Barnyardgrass [7, 15]
95: Plant response rating, Chickweed [10, 20]
60: Plant response rating, Pigweed [6, 14] | Plant response rating, Windgrass [8, 20] | Plant response rating, Chickweed [10, 16] | Plant response rating, Barley [11, 18]
5: Plant response rating, Canarygrass [9, 16]
30: Plant response rating, Canarygrass [9, 20] | Plant response rating, Barley [11, 20]
10: Plant response rating, Wheat [3, 13] | Windgrass plant response rating (0 to 100 scale) [8, 17] | Barley plant response rating (0 to 100 scale) [11, 17]
40: Plant response rating, Barnyardgrass [7, 14]
100: Plant response rating, Velvetleaf [1, 12] | Plant response rating, Velvetleaf [1, 13] | Plant response rating, Velvetleaf [1, 15] | Plant response rating, Morningglory [2, 12] | Plant response rating, Morningglory [2, 13] | Plant response rating, Foxtail, Giant [4, 15] | Plant response rating, Crabgrass, Large [5, 13] | Plant response rating, Crabgrass, Large [5, 15] | Plant response rating, Pigweed [6, 12] | Plant response rating, Pigweed [6, 13] | Plant response rating, Pigweed [6, 15] | Plant response rating, Chickweed [10, 18]
0: Plant response rating, Wheat [3, 12] | Plant response rating, Wheat [3, 14] | Plant response rating, Wheat [3, 15] | Plant response rating, Corn (corn (Zea mays); [12]) | Plant response rating, Corn (corn (Zea mays); [14]) | Plant response rating, Corn (corn (Zea mays); [15]) | Plant response rating, Barley [11, 16]

COCC(C)n1c(-c2ccccc2)ncc(C(=O)C2=C(O)CCCC2=O)c1=O (stereo not shown) [Compound 107]
80: Plant response rating, Crabgrass, Large [5, 12] | Plant response rating, Windgrass [8, 20] | Plant response rating, Canarygrass [9, 18]
70: Plant response rating, Morningglory [2, 14] | Plant response rating, Foxtail, Giant [4, 12]
20: Plant response rating, Corn (corn (Zea mays); [14])
40: Plant response rating, Barnyardgrass [7, 14] | Windgrass plant response rating (0 to 100 scale) [8, 17]
10: Plant response rating, Wheat [3, 13]
60: Plant response rating, Foxtail, Giant [4, 14] | Plant response rating, Canarygrass [9, 20]
30: Plant response rating, Barley [11, 18]
5: Plant response rating, Canarygrass [9, 16] | Barley plant response rating (0 to 100 scale) [11, 17]
0: Plant response rating, Wheat [3, 12] | Plant response rating, Wheat [3, 14] | Plant response rating, Wheat [3, 15] | Plant response rating, Corn (corn (Zea mays); [12]) | Plant response rating, Barley [11, 16]
50: Plant response rating, Corn (corn (Zea mays); [13])
98: Plant response rating, Chickweed [10, 16]
25: Plant response rating, Barley [11, 20]
100: Plant response rating, Velvetleaf [1, 12] | Plant response rating, Velvetleaf [1, 13] | Plant response rating, Velvetleaf [1, 14] | Plant response rating, Velvetleaf [1, 15] | Plant response rating, Morningglory [2, 12] | Plant response rating, Morningglory [2, 13] | Plant response rating, Morningglory [2, 15] | Plant response rating, Crabgrass, Large [5, 15] | Plant response rating, Pigweed [6, 12] | Plant response rating, Pigweed [6, 13] | Plant response rating, Pigweed [6, 14] | Plant response rating, Pigweed [6, 15] | Chickweed plant response rating (0 to 100 scale) [10, 17] | Plant response rating, Chickweed [10, 20] | Plant response rating, Chickweed [10, 18]
90: Plant response rating, Foxtail, Giant [4, 13] | Plant response rating, Foxtail, Giant [4, 15] | Plant response rating, Crabgrass, Large [5, 13] | Plant response rating, Crabgrass, Large [5, 14] | Plant response rating, Barnyardgrass [7, 12] | Plant response rating, Barnyardgrass [7, 13] | Plant response rating, Barnyardgrass [7, 15]
15: Canarygrass plant response rating (0 to 100 scale) [9, 17]

COCCn1c(-c2cccc(C)c2)ncc(C(=O)C2=C(O)CCCC2=O)c1=O [Compound 117]
30: Plant response rating, Wheat [3, 13]
70: Plant response rating, Velvetleaf [1, 14] | Plant response rating, Foxtail, Giant [4, 12] | Plant response rating, Foxtail, Giant [4, 15]
95: Chickweed plant response rating (0 to 100 scale) [10, 17]
90: Plant response rating, Velvetleaf [1, 15] | Plant response rating, Morningglory [2, 15] | Plant response rating, Pigweed [6, 14] | Plant response rating, Barnyardgrass [7, 13] | Plant response rating, Barnyardgrass [7, 15]
40: Plant response rating, Morningglory [2, 14]
5: Plant response rating, Canarygrass [9, 20] | Plant response rating, Canarygrass [9, 18]
45: Windgrass plant response rating (0 to 100 scale) [8, 17]
0: Plant response rating, Wheat [3, 12] | Plant response rating, Wheat [3, 14] | Plant response rating, Corn (corn (Zea mays); [14]) | Plant response rating, Canarygrass [9, 16] | Canarygrass plant response rating (0 to 100 scale) [9, 17] | Plant response rating, Barley [11, 16] | Barley plant response rating (0 to 100 scale) [11, 17] | Plant response rating, Barley [11, 20] | Plant response rating, Barley [11, 18]
98: Plant response rating, Chickweed [10, 20]
50: Plant response rating, Corn (corn (Zea mays); [13]) | Plant response rating, Barnyardgrass [7, 14]
60: Plant response rating, Crabgrass, Large [5, 14]
65: Plant response rating, Windgrass [8, 20]
85: Plant response rating, Chickweed [10, 16]
100: Plant response rating, Velvetleaf [1, 12] | Plant response rating, Velvetleaf [1, 13] | Plant response rating, Morningglory [2, 12] | Plant response rating, Morningglory [2, 13] | Plant response rating, Crabgrass, Large [5, 13] | Plant response rating, Crabgrass, Large [5, 15] | Plant response rating, Pigweed [6, 12] | Plant response rating, Pigweed [6, 13] | Plant response rating, Pigweed [6, 15] | Plant response rating, Chickweed [10, 18]
20: Plant response rating, Wheat [3, 15] | Plant response rating, Foxtail, Giant [4, 14] | Plant response rating, Corn (corn (Zea mays); [12]) | Plant response rating, Corn (corn (Zea mays); [15])
80: Plant response rating, Foxtail, Giant [4, 13] | Plant response rating, Crabgrass, Large [5, 12] | Plant response rating, Barnyardgrass [7, 12]

Reference: patent US8952024B2, “Herbicidal pyrimidone derivatives” (E I du Pont de Nemours and Company, priority 2009, dated 2015)
